Species on record: Rattus norvegicus
Experiment: DrugMatrix - Regimen: Daily Repeat
Type: toxicity, organism-based, Sprague-Dawley
Set-up: regimen Daily Repeat, gender Male, age 6-8 weeks
Settings: in vivo, po, 0.3 mg/kg, route oral GAVAGE, dose level Low, vehicle .5 % CMC; for ABSOLUTE BASOPHIL / ABSOLUTE EOSINOPHIL / ABSOLUTE LYMPHOCYTE / ABSOLUTE MONOCYTE / ABSOLUTE SEGMENTED NEUTROPHIL / BASOPHIL / EOSINOPHIL / ERYTHROCYTE COUNT / HEMATOCRIT / HEMOGLOBIN / LEUKOCYTE COUNT / LYMPHOCYTE / MEAN CORPUSCULAR HEMOGLOBIN / MEAN CORPUSCULAR HEMOGLOBIN CONCENTRATION / MEAN CORPUSCULAR VOLUME / MONOCYTE / NEUTROPHIL / NUCLEATED RED BLOOD CELLS / PLATELET COUNT: tissue Blood; for ALANINE AMINOTRANSFERASE / ALBUMIN / ALKALINE PHOSPHATASE / ASPARTATE AMINOTRANSFERASE / BLOOD UREA NITROGEN / CARBON DIOXIDE / CHLORIDE / CHOLESTEROL / CREATINE PHOSPHOKINASE / CREATININE / GLUCOSE / LACTATE DEHYDROGENASE / LIPASE / PHOSPHORUS / POTASSIUM / SODIUM / TOTAL BILIRUBIN / TOTAL PROTEIN / URIC ACID: tissue Plasma

For `CN1[C@@H]2CC[C@H]1C[C@@H](OC(=O)c1c[nH]c3ccccc13)C2` [TROPISETRON], the “ABSOLUTE BASOPHIL” value (72 h, time 3 day) was 0 CELLS/uL, the “ABSOLUTE EOSINOPHIL” value (72 h, time 3 day) was 256.33 CELLS/uL and the “ABSOLUTE LYMPHOCYTE” value (72 h, time 3 day) was 11976 CELLS/uL. For the same compound, the “ABSOLUTE MONOCYTE” value (72 h, time 3 day) was 96 CELLS/uL, the “ABSOLUTE SEGMENTED NEUTROPHIL” value (72 h, time 3 day) was 905 CELLS/uL and the BASOPHIL (72 h, time 3 day) was 0%. For the same compound, the EOSINOPHIL (72 h, time 3 day) was 2%, the “ERYTHROCYTE COUNT” value (72 h, time 3 day) was 5.89 x10E6/uL and the HEMATOCRIT (72 h, time 3 day) was 37.4%. The HEMOGLOBIN (72 h, time 3 day) was 14.07 G/DL, the “LEUKOCYTE COUNT” value (72 h, time 3 day) was 13.23 x10E3/uL and the LYMPHOCYTE (72 h, time 3 day) was 90.67%. The “MEAN CORPUSCULAR HEMOGLOBIN” value (72 h, time 3 day) was 23.87 pg, the “MEAN CORPUSCULAR HEMOGLOBIN CONCENTRATION” value (72 h, time 3 day) was 37.63 G/DL and the “MEAN CORPUSCULAR VOLUME” value (72 h, time 3 day) was 63.5 fL. For the same compound, the MONOCYTE (72 h, time 3 day) was 0.67%, the NEUTROPHIL (72 h, time 3 day) was 6.67% and the “NUCLEATED RED BLOOD CELLS” value (72 h, time 3 day) was 0 /100WBC. For the same compound, the “PLATELET COUNT” value (72 h, time 3 day) was 1325.33 x10E3/uL, the “ALANINE AMINOTRANSFERASE” value (72 h, time 3 day) was 46.33 u/L and the ALBUMIN (72 h, time 3 day) was 4.43 G/DL. The “ALKALINE PHOSPHATASE” value (72 h, time 3 day) was 408.67 u/L, the “ASPARTATE AMINOTRANSFERASE” value (72 h, time 3 day) was 87.33 u/L and the “BLOOD UREA NITROGEN” value (72 h, time 3 day) was 13 mg/dL. For the same compound, the “CARBON DIOXIDE” value (72 h, time 3 day) was 26 mmol/L, the CHLORIDE (72 h, time 3 day) was 106 MEQ/L and the CHOLESTEROL (72 h, time 3 day) was 71.33 mg/dL. The “CREATINE PHOSPHOKINASE” value (72 h, time 3 day) was 621.67 u/L, the CREATININE (72 h, time 3 day) was 0.21 mg/dL and the GLUCOSE (72 h, time 3 day) was 160.67 mg/dL. For the same compound, the “LACTATE DEHYDROGENASE” value (72 h, time 3 day) was 123.67 u/L, the LIPASE (72 h, time 3 day) was 9 u/L and the PHOSPHORUS (72 h, time 3 day) was 14.4 mg/dL. The POTASSIUM (72 h, time 3 day) was 6.64 MEQ/L, the SODIUM (72 h, time 3 day) was 147.37 MEQ/L and the “TOTAL BILIRUBIN” value (72 h, time 3 day) was 0.2 mg/dL. For the same compound, the “TOTAL PROTEIN” value (72 h, time 3 day) was 6.17 G/DL, the “URIC ACID” value (72 h, time 3 day) was 2.47 mg/dL and the “ABSOLUTE BASOPHIL” value (120 h, time 5 day) was 0 CELLS/uL. For the same compound, the “ABSOLUTE EOSINOPHIL” value (120 h, time 5 day) was 244.67 CELLS/uL, the “ABSOLUTE LYMPHOCYTE” value (120 h, time 5 day) was 13752.67 CELLS/uL and the “ABSOLUTE MONOCYTE” value (120 h, time 5 day) was 213.33 CELLS/uL. The “ABSOLUTE SEGMENTED NEUTROPHIL” value (120 h, time 5 day) was 1056 CELLS/uL, the BASOPHIL (120 h, time 5 day) was 0% and the EOSINOPHIL (120 h, time 5 day) was 1.67%. For the same compound, the “ERYTHROCYTE COUNT” value (120 h, time 5 day) was 5.41 x10E6/uL, the HEMATOCRIT (120 h, time 5 day) was 34.5% and the HEMOGLOBIN (120 h, time 5 day) was 13.27 G/DL. For the same compound, the “LEUKOCYTE COUNT” value (120 h, time 5 day) was 15.27 x10E3/uL, the LYMPHOCYTE (120 h, time 5 day) was 90.33% and the “MEAN CORPUSCULAR HEMOGLOBIN” value (120 h, time 5 day) was 24.57 pg. The “MEAN CORPUSCULAR HEMOGLOBIN CONCENTRATION” value (120 h, time 5 day) was 38.43 G/DL, the “MEAN CORPUSCULAR VOLUME” value (120 h, time 5 day) was 63.8 fL and the MONOCYTE (120 h, time 5 day) was 1.33%. The NEUTROPHIL (120 h, time 5 day) was 6.67%, the “NUCLEATED RED BLOOD CELLS” value (120 h, time 5 day) was 0 /100WBC and the “PLATELET COUNT” value (120 h, time 5 day) was 1293.33 x10E3/uL. The “ALANINE AMINOTRANSFERASE” value (120 h, time 5 day) was 47.33 u/L, the ALBUMIN (120 h, time 5 day) was 4.13 G/DL and the “ALKALINE PHOSPHATASE” value (120 h, time 5 day) was 386.33 u/L. For the same compound, the “ASPARTATE AMINOTRANSFERASE” value (120 h, time 5 day) was 80 u/L, the “BLOOD UREA NITROGEN” value (120 h, time 5 day) was 17.67 mg/dL and the “CARBON DIOXIDE” value (120 h, time 5 day) was 25.33 mmol/L. For the same compound, the CHLORIDE (120 h, time 5 day) was 106.67 MEQ/L, the CHOLESTEROL (120 h, time 5 day) was 71.33 mg/dL and the “CREATINE PHOSPHOKINASE” value (120 h, time 5 day) was 310 u/L. The CREATININE (120 h, time 5 day) was 0.21 mg/dL, the GLUCOSE (120 h, time 5 day) was 162 mg/dL and the “LACTATE DEHYDROGENASE” value (120 h, time 5 day) was 329 u/L. It also gave an LIPASE (120 h, time 5 day) of 9 u/L, a PHOSPHORUS (120 h, time 5 day) of 13.37 mg/dL and a POTASSIUM (120 h, time 5 day) of 6 MEQ/L. The SODIUM (120 h, time 5 day) was 145.27 MEQ/L, the “TOTAL BILIRUBIN” value (120 h, time 5 day) was 0.27 mg/dL and the “TOTAL PROTEIN” value (120 h, time 5 day) was 6.37 G/DL. For the same compound, the “URIC ACID” value (120 h, time 5 day) was 1.77 mg/dL.
